The values that follow come from ChEMBL document CHEMBL4742398, “Heterocyclyl substituted pyrrolopyridines that are inhibitors of the cdk12 kinase” (2019).

The target of the first assay is CDK12/Cyclin K (Homo sapiens, UniProt Q9NYV4). The experiment in a line: Inhibition of CDK12/cyclinK (unknown origin) using RBER-IRStide as substrate and in presence of ATP preincubated for 30 mins followed by addition of substrate measured after 1 hr by ADP-Glo reagent assay. In kind it is protein-complex assay.
Sequence of CDK12/Cyclin K (O75909 whole entry): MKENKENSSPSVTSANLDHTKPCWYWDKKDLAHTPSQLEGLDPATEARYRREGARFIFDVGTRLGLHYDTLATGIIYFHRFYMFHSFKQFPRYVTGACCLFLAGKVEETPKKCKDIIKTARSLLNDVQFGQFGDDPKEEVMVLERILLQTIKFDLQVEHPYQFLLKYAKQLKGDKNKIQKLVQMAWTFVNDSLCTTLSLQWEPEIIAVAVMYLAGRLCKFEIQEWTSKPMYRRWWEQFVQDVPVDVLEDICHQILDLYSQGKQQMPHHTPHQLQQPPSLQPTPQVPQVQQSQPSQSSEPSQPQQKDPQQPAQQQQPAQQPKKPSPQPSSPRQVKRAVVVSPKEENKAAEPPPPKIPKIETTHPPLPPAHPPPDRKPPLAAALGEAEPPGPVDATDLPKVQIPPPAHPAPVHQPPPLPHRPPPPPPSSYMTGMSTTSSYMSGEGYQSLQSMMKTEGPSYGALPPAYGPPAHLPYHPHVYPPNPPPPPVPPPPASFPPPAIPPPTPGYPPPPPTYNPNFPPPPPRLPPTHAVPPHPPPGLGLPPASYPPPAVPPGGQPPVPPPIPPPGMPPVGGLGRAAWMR
Sequence of CDK12/Cyclin K (Q9NYV4 whole entry): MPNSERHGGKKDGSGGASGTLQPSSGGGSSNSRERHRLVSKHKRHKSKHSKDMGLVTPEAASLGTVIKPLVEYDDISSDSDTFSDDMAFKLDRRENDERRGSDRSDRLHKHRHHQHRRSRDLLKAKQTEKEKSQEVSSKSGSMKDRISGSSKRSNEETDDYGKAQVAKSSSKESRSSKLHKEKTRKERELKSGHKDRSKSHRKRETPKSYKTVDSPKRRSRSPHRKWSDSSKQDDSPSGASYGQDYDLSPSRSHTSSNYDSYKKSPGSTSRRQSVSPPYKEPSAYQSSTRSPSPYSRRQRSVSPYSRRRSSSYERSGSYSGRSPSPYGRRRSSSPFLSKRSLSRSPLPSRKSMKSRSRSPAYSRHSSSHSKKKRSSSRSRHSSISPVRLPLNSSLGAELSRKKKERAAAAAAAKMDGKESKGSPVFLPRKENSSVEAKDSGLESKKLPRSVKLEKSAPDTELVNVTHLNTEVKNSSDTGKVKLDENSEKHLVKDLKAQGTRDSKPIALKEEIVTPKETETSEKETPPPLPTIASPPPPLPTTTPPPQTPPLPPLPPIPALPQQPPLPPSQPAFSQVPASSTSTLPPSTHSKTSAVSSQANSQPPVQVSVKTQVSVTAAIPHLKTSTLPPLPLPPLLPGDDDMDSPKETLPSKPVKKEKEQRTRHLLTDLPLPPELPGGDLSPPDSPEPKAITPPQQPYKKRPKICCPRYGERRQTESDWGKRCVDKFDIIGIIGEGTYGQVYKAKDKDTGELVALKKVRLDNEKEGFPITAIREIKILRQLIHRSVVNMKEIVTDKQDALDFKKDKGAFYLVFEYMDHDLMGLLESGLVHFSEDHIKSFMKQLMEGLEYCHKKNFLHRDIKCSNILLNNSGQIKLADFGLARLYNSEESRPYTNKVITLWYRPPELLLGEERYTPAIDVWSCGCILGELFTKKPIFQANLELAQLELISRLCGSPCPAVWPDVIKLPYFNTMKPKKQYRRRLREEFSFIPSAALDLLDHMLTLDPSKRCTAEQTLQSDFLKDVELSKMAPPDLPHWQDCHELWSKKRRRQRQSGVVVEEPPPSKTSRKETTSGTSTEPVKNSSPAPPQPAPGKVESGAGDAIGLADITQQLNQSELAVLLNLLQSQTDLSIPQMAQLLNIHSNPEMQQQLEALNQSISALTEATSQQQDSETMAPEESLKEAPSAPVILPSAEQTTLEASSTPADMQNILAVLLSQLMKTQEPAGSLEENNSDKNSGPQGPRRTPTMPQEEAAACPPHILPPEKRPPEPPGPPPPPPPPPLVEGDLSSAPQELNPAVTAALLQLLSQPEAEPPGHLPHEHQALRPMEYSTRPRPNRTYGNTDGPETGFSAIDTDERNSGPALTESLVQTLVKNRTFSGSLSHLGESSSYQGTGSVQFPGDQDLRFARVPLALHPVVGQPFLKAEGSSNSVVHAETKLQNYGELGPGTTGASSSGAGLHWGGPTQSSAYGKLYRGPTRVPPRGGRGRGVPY
For the compound `c1cnn2ncc(-c3ccnc4[nH]c(CN5CCNCC5)cc34)c2c1`, the IC50 – broadly, the concentration needed to halve the response being measured – is at least 1000 nM.

Tested on in another assay: not listed separately
Briefly: Decrease in nuclear foci in human DM1 fibroblast for 24 hrs by fluorescent in situ hybridization assay. It counts as functional.
In turn, `CCC(=O)N1CCC[C@H]1C(=O)NCCc1cc2c(-c3cnn4ncccc34)ccnc2[nH]1` gave a half-inhibitory concentration (IC50) of 10000 nM.

The compound `O=C(CCl)Nc1ccc(C(=O)N2CCC(c3cc4c(-c5cnn6ncccc56)ccnc4[nH]3)C2)cc1` (stereo not drawn) had an IC50 of under 1000 nM. For `C=CC(=O)N1CCC[C@H]1C(=O)NCCc1cc2c(-c3cnn(C)c3)ccnc2[nH]1`, the half-maximal inhibitory concentration (IC50) amounted to 10000 nM. In turn, `c1cc(-c2ccc3cn[nH]c3c2)c2cc[nH]c2n1` showed an IC50 of 10000 nM. As to `CN(C)C/C=C/C(=O)N1CC[C@@H](OCC(=O)N2CCC(c3cc4c(-c5cnn6ncccc56)ccnc4[nH]3)C2)C1` (stereo partly drawn), the half-inhibitory concentration (IC50) was 1000 nM. Still for that read-out and setting: then `C=CC(=O)N1CC(C(=O)NCCc2cc3c(-c4cnn5ncccc45)ccnc3[nH]2)C1`, with 1000 nM. Compound `C=CC(=O)Nc1ccc(C(=O)N2CCN(Cc3cc4c(-c5cnn6ncccc56)ccnc4[nH]3)CC2)cc1` registered a half-maximal inhibitory concentration (IC50) of 1000 nM. `C=CC(=O)N1CCC[C@@H]1C(=O)NCCc1cc2c(-c3cnn4ncccc34)c(Cl)cnc2[nH]1` registered an IC50 of under 1000 nM. Compound `O=C(CCl)Nc1cccc(C(=O)N2CC[C@H](c3cc4c(-c5cnn6ncccc56)ccnc4[nH]3)C2)c1` gave a half-maximal inhibitory concentration (IC50) of under 1000 nM. With `C=C(C)C(=O)N1CCC[C@H]1C(=O)NCCc1cc2c(-c3cnn4ncccc34)ccnc2[nH]1`, the half-maximal inhibitory concentration (IC50) stood at 10000 nM. Same read-out and setting: for `C=CC(=O)Nc1ccc(C(=O)N2CCC(c3cc4c(-c5cnn6ncccc56)ccnc4[nH]3)C2)cc1` (stereo not drawn) the value was under 1000 nM; for `C=CC(=O)Nc1ccc(C(=O)NCc2cc3c(-c4cnn5ncccc45)ccnc3[nH]2)cc1`, 1000 nM; for `C[C@@H](Cl)C(=O)N1CCC[C@@H]1C(=O)N1CCC(c2cc3c(-c4cnn5ncccc45)ccnc3[nH]2)C1` (stereo partly drawn), 1000 nM. Same read-out and setting: then `CN(C)C/C=C/C(=O)N1CCC[C@@H](C(=O)N2CCC(c3cc4c(-c5cnn6ncccc56)ccnc4[nH]3)C2)C1` (stereo partly drawn), with 1000 nM; and `N#CN1CCC[C@H](C(=O)NCCc2cc3c(-c4cnn5ncccc45)ccnc3[nH]2)C1`, with 1000 nM. For `Cc1cc2c(-c3cnn4ncccc34)ccnc2[nH]1`, the IC50 was under 1000 nM.

In turn, `CC(C)(CCl)C(=O)N1CCC[C@H]1C(=O)NCCc1cc2c(-c3cnn4ncccc34)ccnc2[nH]1` had an IC50 of 10000 nM. In turn, `C=CC(=O)Nc1cccc(C(=O)N2CCC(c3cc4c(-c5cnn6ncccc56)ccnc4[nH]3)C2)c1` (stereo not drawn) showed a concentration for half-maximal inhibition (IC50) of under 1000 nM. `C=CC(=O)N1CCC[C@@H](C(=O)NCCc2cc3c(-c4cnn5ncccc45)ccnc3[nH]2)C1` yielded an IC50 of 1000 nM. Consider `COc1ccc2c(-c3ccnc4[nH]ccc34)cnn2n1`, for which the IC50 came to 10000 nM. On the same count and under the same terms, then `C=CC(=O)Nc1ccc(C(=O)NCCc2cc3c(-c4cnn5ncccc45)ccnc3[nH]2)cc1`, with under 1000 nM.

Compound `OCc1cc2c(-c3cnn4ncccc34)ccnc2[nH]1` displayed an IC50 of 1000 nM. The same measure, in the same setting: then `c1cnn2ncc(-c3ccnc4[nH]ccc34)c2c1`, with under 1000 nM; and `C=CC(=O)N1CCC[C@@H]1C(=O)NCCc1cc2c(-c3cnn4ncccc34)ccnc2[nH]1`, with under 1000 nM; and `O=C([C@H]1CCCN1C(=O)CCl)N1CCC(c2cc3c(-c4cnn5ncccc45)ccnc3[nH]2)C1` (stereo partly drawn), with under 1000 nM.

In the case of `C=CC(=O)N1C[C@H](F)C[C@H]1C(=O)NCCc1cc2c(-c3cnn4ncccc34)ccnc2[nH]1`, the IC50 was under 1000 nM. Take `C=CC(=O)N1CCC[C@H]1C(=O)OCCc1cc2c(-c3cnn4ncccc34)ccnc2[nH]1`: the IC50 is under 1000 nM. `C=CC(=O)N1CC2(CC2)C[C@H]1C(=O)NCCc1cc2c(-c3cnn4ncccc34)ccnc2[nH]1` yielded an IC50 of 1000 nM.

Compound `C=CC(=O)Nc1cccc(C(=O)N2CC[C@H](c3cc4c(-c5cnn6ncccc56)ccnc4[nH]3)C2)c1` yielded a 50% inhibitory concentration (IC50) of under 1000 nM. For the compound `CN(C)C/C=C/C(=O)N1CCC[C@H]1C(=O)NCCc1cc2c(-c3cnn4ncccc34)ccnc2[nH]1`, the 50% inhibitory concentration (IC50) amounted to 10000 nM. Same read-out and setting: for `C=CC(=O)Nc1cccc(C(=O)N2CCN(Cc3cc4c(-c5cnn6ncccc56)ccnc4[nH]3)CC2)c1` the value was 1000 nM; for `O=C(CCl)Nc1cccc(C(=O)N2CCC(c3cc4c(-c5cnn6ncccc56)ccnc4[nH]3)C2)c1` (stereo not drawn), under 1000 nM.

`C=CC(=O)N1CCCC[C@H]1C(=O)NCCc1cc2c(-c3cnn4ncccc34)ccnc2[nH]1` had an IC50 of 1000 nM. On to `CN(C)C/C=C/C(=O)N1CCC(CC(=O)N2CCC(c3cc4c(-c5cnn6ncccc56)ccnc4[nH]3)C2)CC1` (stereo not drawn), for which it took 10000 nM to reach half-maximal inhibition (IC50). The compound `O=C(CCl)Nc1cccc(C(=O)N2CC[C@@H](c3cc4c(-c5cnn6ncccc56)ccnc4[nH]3)C2)c1` showed a 50% inhibitory concentration (IC50) of under 1000 nM. In the case of `C=CC(=O)NC(Cc1ccccc1)C(=O)NCCc1cc2c(-c3cnn4ncccc34)ccnc2[nH]1` (stereo not drawn), the IC50 worked out at 1000 nM. On the same count and under the same terms, for `C=CC(=O)Nc1cccc(C(=O)NCCc2cc3c(-c4cnn5ncccc45)ccnc3[nH]2)c1` the value was under 1000 nM; for `C=CC(=O)N1CCC[C@H]1C(=O)NCCc1cc2c(-c3cnn4ncccc34)ccnc2[nH]1`, under 1000 nM; for `C=CC(=O)Nc1ccc(C(=O)N2CCC(c3cc4c(-c5c[nH]c6ccccc56)ccnc4[nH]3)C2)cc1` (stereo not drawn), 1000 nM. Consider `C=CC(=O)N1CCOC[C@@H]1C(=O)NCCc1cc2c(-c3cnn4ncccc34)ccnc2[nH]1`, for which the IC50 was under 1000 nM.

Consider `CN(C)C/C=C/C(=O)Nc1ccc(C(=O)N2CCC(c3cc4c(-c5cnn6ncccc56)ccnc4[nH]3)C2)cc1` (stereo not drawn), for which the 50% inhibitory concentration (IC50) was under 1000 nM.

`NC(=O)c1cc2c(-c3cnn4ncccc34)ccnc2[nH]1`: the IC50 came out at 1000 nM. Still for that read-out and setting: then `CN(C)C/C=C/C(=O)Nc1cccc(C(=O)NCCc2cc3c(-c4cnn5ncccc45)ccnc3[nH]2)c1`, with 10000 nM; and `C/C=C/C(=O)N1CCC[C@H]1C(=O)NCCc1cc2c(-c3cnn4ncccc34)ccnc2[nH]1`, with 1000 nM. Still for that read-out and setting: then `CC#CC(=O)N1CCC[C@H]1C(=O)NCCc1cc2c(-c3cnn4ncccc34)ccnc2[nH]1`, with 1000 nM.

`C#CC(=O)Nc1cccc(C(=O)N2CCC(c3cc4c(-c5cnn6ncccc56)ccnc4[nH]3)C2)c1` (stereo not drawn) displayed an IC50 of under 1000 nM. Still for that read-out and setting: then `C=CC(=O)N1CCC[C@H]1C(=O)N1CCN(Cc2cc3c(-c4cnn5ncccc45)ccnc3[nH]2)CC1`, with 10000 nM.

Compound `C=CC(=O)N1CCC[C@H](C(=O)NCCc2cc3c(-c4cnn5ncccc45)ccnc3[nH]2)C1` yielded an IC50 of under 1000 nM. The compound `c1cc(-c2ccc3[nH]nnc3c2)c2cc[nH]c2n1` returned an IC50 of 10000 nM. Same read-out and setting: then `CNC(=O)c1cc2c(-c3cnn4ncccc34)ccnc2[nH]1`, with 1000 nM; and `C=CC(=O)N1CCC[C@H](C(=O)NCCc2cc3c(-c4cnn5ncccc45)c(Cl)cnc3[nH]2)C1`, with 1000 nM. On the same count and under the same terms, then `C=CC(=O)Nc1cc(C(=O)N2CCC(c3cc4c(-c5cnn6ncccc56)ccnc4[nH]3)C2)ccc1OC` (stereo not drawn), with under 1000 nM; and `C=CC(=O)N1CCC[C@H]1C(=O)N1CC[C@@H](c2cc3c(-c4cnn5ncccc45)ccnc3[nH]2)C1`, with under 1000 nM; and `CC(C)=CC(=O)N1CCC[C@H]1C(=O)NCCc1cc2c(-c3cnn4ncccc34)ccnc2[nH]1`, with 1000 nM. The same measure, in the same setting: then `C=CC(=O)NC(C)C(=O)NCCc1cc2c(-c3cnn4ncccc34)ccnc2[nH]1` (stereo not drawn), with 1000 nM. In turn, `c1ccc(Cc2cc3c(-c4cnn5ncccc45)ccnc3[nH]2)cc1` showed an IC50 of 10000 nM. Still for that read-out and setting: for `C=CC(=O)N1CCC1C(=O)NCCc1cc2c(-c3cnn4ncccc34)ccnc2[nH]1` (single isomer, unassigned) the value was under 1000 nM.
